Assays:
[1] = test system: Dx5 MDR human tumor cells; assay: Nude mouse xenograft, established Dx5 MDR tumors; assay type: in vivo, nude mice
Method: Nude mouse xenograft model. Female NCr nude mice were purchased from Taconic, Germantown, N.Y., and were generally 20-24 grams when used. Mice were kept in autoclaved filter-top microisolator cages with autoclaved water and sterile food ad lib. The cages were maintained in an isolator unit providing filtered air (Lab Products, Inc., Maywood, N.J.). Tumor cells were grown and harvested as described above. NCr nude mice were injected intradermally with 5×10^6 tumor cells. In some experiments, treatment was initiated on the day of tumor cell implantation. […] Mice were treated IP daily for 5 days per week.
MDR is a factor in failing to achieve durable chemotherapeutic efficacy in the clinical setting. Using an MDR tumor cell line Dx5 the efficacy of PG490-88 was tested. Nude mice were implanted intradermally with Dx5 tumor cells, and treatment was initiated when the tumors reached approximately 100 mm^3.
The data in FIG. 4 represents the measurement of Dx5 tumor volume on day 14 after the initiation of treatment. Nude mice bearing xenografts of Dx5 MDR human tumor cells were treated daily as shown. The data represent the means and the standard errors of the means of the tumor volumes as percent of the day 0 tumor volumes for each animal measured day 3, 7, 10 and 14 days after the initiation of treatment. There were 5 mice in the groups receiving saline or PG490-88 plus doxorubicin, and 4 mice in the groups receiving PG490-88 or doxorubicin alone.

Dx5 cells = assay: Cell viability by annexin and propidium iodide staining/FACS with z-VAD.fmk, Dx5 cells; conditions: Homo sapiens, read-out: cell viability in PG490-treated Dx5 cells
Method: Cell death reagents and assays. Cell viability was measured by an MTT assay as recently described (Lee et al. (1999) J. Biol. Chem. 274:13451-13455. z-VAD-fluoromethylketone (z-VAD.fmk) was obtained from Alexis Biochemicals, San Diego, Calif. The effect of z-VAD.fmk on cell viability was analyzed by annexin and propidium iodide staining followed by FACS analysis according to the manufacturer's protocol (Clontech Laboratories, Palo Alto, Calif.). The analysis of apoptosis in histologic sections was done by terminal deoxynucleotidyl transferase (TdT)-mediated d-UTP nick end labeling (TUNEL) of slides from paraffin sections of day 3 tumors harvested from the mice 24 h after the second of two daily treatments with PG490-88 or saline. TUNEL staining was done according to the manufacturer's protocol (Boehringer Mannheim, Indianapolis, Ind.) and then the histology slides were counterstained with methyl green. DNA was isolated from cells for analysis of internucleosomal DNA laddering followed by agarose gel electrophoresis and ethidium bromide staining.

[2] = test system: A549 (non-small cell lung cancer) cells; assay: Cell viability by MTT assay, A549 cells; conditions: for Percent survival: MTT after 48 h
Method: Cell culture and luciferase assay. A549 (non-small cell lung cancer), HT-1080 (fibrosarcoma), and MCF-7 (breast cancer) cells were cultured in the appropriate media with 10% FCS supplemented with L-glutamine, penicillin, and streptomycin. p53 wild-type (+/+) and null (−/−) Mouse Embryonic Fibroblasts (MEFs) transfected with the E1A/Ras were grown in DMEM containing 15% FCS supplemented with L-glutamine, penicillin, and streptomycin. Transfections were done on MCF-7 cells using the lipofectamine Plus reagent. At 24 hours after transfection, MCF-7 cells were left untreated or treated with triptolide (20 ng/ml) or doxorubicin (100 nM) for 4, 8, and 16 hours and cells were collected for luciferase assay. Luciferase activity was measured in samples with equal protein concentration with a Luminometer (Analytical Luminescence Laboratory, San Diego, Calif.).
Cell viability assay. Cell viability was measured by an 3-(4,5-dimethylthiazol-2-yl)-2,5-diphenyltetrazolium bromide (MTT) assay as described above. Untreated or cells treated with triptolide and/or doxorubicin were harvested at the indicated times followed by the addition of MTT to the cells in a 96-well plate. Cells were solubilized with […] acidified with 0.1N HCl. The 96-plate was read at a wavelength of 590 nm on an iEMS Labsystems plate reader.

p53 [3] = assay: p53 protein level by immunoblotting (Example 5); assay type: cell-based, human
Method: (§1) Immunoblotting. Cells were harvested at the conditions and times indicated and lysed using HNET buffer (50 mM HEPES, pH 7.5, 100 mM NaCl, 1 mM EGTA, and 1% Triton X-100) supplemented with 1 mM dithiothreitol, 1 mM phenylmethylsulfonyl fluoride, and protease inhibitors mixture (Roche Molecular Biochemicals). 100 μg of protein was loaded on 10% SDS-PAGE followed by transferring to polyvinylidene difluoride membrane. Immunoblotting was performed as described previously using a p53 mouse monoclonal antibody from Oncogene Research Products. […] Immunoblot analysis using other antibodies was performed as described above. The band intensity was measured by NIH Image 1.62.

p21 = p21 protein level by immunoblotting (Example 5); assay type: cell-based, human; conditions: for effect on p21 expression: p53 mutant HT29 colon cancer cell line
Method: as §1

HT1080 cells = assay: Apoptosis by Annexin V and Propidium Iodide staining, HT1080 cells; assay type: cell-based, human; set-up: unit of the concentration uncertain; conditions: HT1080, 20 h; PG490 5 ng/ml; CPT-11 (5 µM) alone, (5 μM) in combination; PG490 pretreatment 4 h then CPT-11 16 h
Method: HT1080 cells were treated as shown and harvested for analysis of apoptosis by Annexin V and Propidium Iodide staining 20 h after treatment. In experiments with a combination of PG490 and CPT-11, cells were pretreated with PG490 for 4 h followed by the addition of CPT-11 for 16 h.

p53 [4] = assay: p53 protein level by immunoblotting (Example 2); assay type: cell-based, human; conditions: for increase in p53 protein: MCF-7 cells
Method: Immunoblotting. At 8 hours after triptolide and/or doxorubicin treatment cells were harvested at the times indicated and lysed using HNET buffer (50 mM HEPES pH 7.5, 100 mM NaCl, 1 mM EGTA, and 1% Triton X-100) supplemented with 1 mM DTT, 1 mM PMSF and protease inhibitors cocktail (Boehringer Mannheim, Germany). 35 μg of protein was loaded on 10% SDS-PAGE followed by transferring to PVDF membrane. Immunoblotting was performed as previously described using a p53 mouse monoclonal antibody from Oncogene Research Products (Lee et al. (1999) J Biol Chem 274:13451-5).

[5] = A549, Triptolide 5 ng/ml, Doxorubicin 100 nM, alone or combined

SMILES	growth of one tumor compared with its day 0 value ([1]; PG490-88 0.75 mg/kg/day, one of four mice) [fold]	reduction of mean tumor size compared to day 0 values ([1]; PG490-88 0.75 mg/kg/day, three of the four mice) [%]	viability at 0.02 µg/mL (Dx5 cells) [%]	Percent survival [2, 5] [%]	Percent survival ([2]; A549, Triptolide 20 ng/ml alone or with Doxorubicin 100 nM) [%]	effect on cell death induced by carboplatinum ([2]; A549 cells)	increase in p53 (p53 [3]; HT1080, triptolide 5 ng/ml) [fold]	increase in p53 steady-state protein levels (p53 [3]; HT1080, triptolide 20 ng/ml, 9 h) [fold]	reduction of basal p21 levels (p21; HT1080, triptolide 20 ng/ml) [%]	effect on CPT-11-mediated induction of p21 (p21; HT1080 and A549 cells)	effect on p21 expression (p21)	reduction of doxorubicin-mediated induction of p53 (p21; triptolide 5 ng/ml) [%]	effect on doxorubicin-induced increase in p21 (p21; triptolide 20 ng/ml)	Apoptotic Cells (%) (HT1080 cells)	increase in p53 steady state protein levels (p53 [4]; MCF-7 and A549 cells, dose- and time-dependent)	increase in p53 protein (p53 [4])	cytotoxicity at 0.1 µM ([2]; Homo sapiens, A549, 48 h, read-out: decrease in cell viability, A549, triptolide 20 ng/ml, doxorubicin 100 nM, alone or combined, 48 hours) [%]	increase in p53 protein (p53 [3]; HT1080, doxorubicin alone or plus triptolide) [fold]	increase in p21 (p21; HT1080, doxorubicin) [fold]	increase of mean tumor volume over 14 days ([1]; doxorubicin alone 2 mg/kg/day)
CC(C)[C@]12O[C@H]1[C@@H]1O[C@]13[C@]1(O[C@H]1C[C@H]1C4=C(CC[C@@]13C)C(=O)OC4)[C@@H]2OC(=O)CCC(=O)[O-].[Na+] [PG490-88, 14-succinyl triptolide sodium salt]	2.8	28																		
CC(C)[C@]12O[C@H]1[C@@H]1O[C@]13[C@]1(O[C@H]1C[C@H]1C4=C(CC[C@@]13C)C(=O)OC4)[C@@H]2O [PG490, triptolide]			15	91.1 ± 3.8	64.0 ± 8.2	enhances cell death	2.4	4	50	inhibits	did not affect	58	completely blocked	13.5	2-4 fold	greater than 4 fold				
COc1cccc2c1C(=O)c1c(O)c3c(c(O)c1C2=O)C[C@@](O)(C(=O)CO)C[C@@H]3O[C@H]1C[C@H](N)[C@H](O)[C@H](C)O1 [doxorubicin, reference compound]				85.7 ± 9.6							did not affect					2 fold	14.3	4.9	14.5	more than 10 fold

Source: patent US6599499B1, “Uses of diterpenoid triepoxides as an anti-proliferative agent” (priority 1999, dated 2003)
